Tests used:
[1] = biological target: bovine α-chymotrypsin (bCT) (Bos taurus, UniProt P00766); experiment: Bovine chymotrypsin spectrophotometric assay (Suc-Ala-Ala-Pro-Phe-pNA); assay type: biochemical
Protocol: The activity of bCT was assayed spectrophotometrically with a Varian Cary 5000 UV-VIS-NIR spectrophotometer equipped with a thermostated multicell holder at 25.0±0.1° C. Assay buffer was: Tris-HCl (77 mM), CaCl2 (20 mM), pH 7.8 (pH optimum of α-chymotrypsin {3}). A solution of bCT (21.9 μg/mL) in aq HCl (1 mM) was prepared daily by a 1:40 dilution of a stock solution (874 μg/mL) in aq HCl (1 mM) and kept at 0° C. A 1:100 dilution in ice-cold aq HCl (1 mM) was prepared immediately before starting each measurement. Stock solutions of the substrate Suc-Ala-Ala-Pro-Phe-pNA (10 mM) and all inhibitors (5 mM) were freshly prepared in DMSO and stored at r.t. All compounds were analyzed at five different inhibitor concentrations, [I]. Progress curves were monitored at 405 nm over 6 min and characterized by a linear steady state turnover of the substrate.
The Inhibition studies were performed in the presence of 6% v/v DMSO in a volume of 1 mL containing 0.011 μg/mL bCT, different concentrations of Suc-Ala-Ala-Pro-Phe-pNA (10-100 μM) and inhibitor. Into a cuvette containing 890 μL assay buffer, 10 μL of substrate solution (1-10 mM), inhibitor stock, and DMSO were added to give a total volume of […]. After thoroughly mixing the contents of the cuvette, the enzymatic reaction was initiated by adding 50 μL of bCT solution. Uninhibited enzyme activity was determined by adding DMSO instead of inhibitor solution. Non-enzymatic hydrolysis of Suc-Ala-Ala-Pro-Phe-pNA was analyzed by adding DMSO and 1 mM aqueous HCl instead of inhibitor and enzyme solution, respectively, and found to be negligible. The rate of enzyme-catalyzed hydrolysis of 100 μM substrate was determined without inhibitor in each experiment and was set to 100%. Ki values of inhibitors were determined graphically according to Dixon {4} using mean values of percentage rates obtained in three separate experiments at two different substrate concentrations, [S].

[2] = test system: STA-ET-1 Ewing's sarcoma cells; experiment: Cell viability assay (7AAD, 48 hours), STA-ET-1; assay type: cell-based; conditions: 48 hours exposure; read-out: Cancer cell lines IC50 (μM) STA-ET-1
Protocol: (§1) Cell viability assays were performed as previously described. Briefly, cells were seeded in 96 well microtiterplates at a density of 3×10^4 cells per well in the presence of the indicated chemical. Cells were harvested 48 hours post-treatment, centrifuged at 1,300×g, washed in phosphate-buffered saline (PBS) and stained with 7AAD solution (2 μg/mL) (7-amino-actinomycin-D, Invitrogen, Carlsbad, Calif.) for 10 mins at room temperature. Viable cells were determined with the use of a FACS Calibur flow cytometer (Becton Dickinson Immunocytometry Systems), and analyzed with the use of FLOWJO (Tree Star, Inc) and GraphPad Prism (GraphPad Software Inc).
(§2) WE-68 and VH-64 Ewing's sarcoma cells were kindly supplied by F. van Valen (Department of Orthopaedic Surgery, Westfalische-Wilhelms-University, Germany).TC-252 and STA-ET-1 Ewing's sarcoma cells were kindly provided by G. Hamilton (Department of Surgery, University of Vienna, Austria) or P. Ambros (Children's Cancer Research Institute, St Anna Children's Hospital, Vienna, Austria). Primary human embryonic fibroblasts or primary human osteoblasts were collected from the Women's and Children's Hospital (North Adelaide, South Australia, Australia) or Royal Adelaide Hospital with patient consent. Mouse Embryonic Fibroblasts (MEFs) and its p53-null derivative were kindly supplied by Guillermina Lozano (Department of Genetics, Anderson Cancer Centre, University of Texas, Houston, Tex., USA). WE-68 cell lines were grown in RPMI-1640 media, whilst human embryonic fibroblasts and MEFs were grown in Dulbecco's Modified Eagle's Medium (DMEM). Media was supplemented with 10% FCS, 1% PSG and 10 mM HEPES. All cells were maintained at 37° C. in a humidified atmosphere of 5% CO2.

[3] = test system: TC-252 Ewing's sarcoma cells; experiment: Cell viability assay (7AAD, 48 hours), TC-252; assay type: cell-based; conditions: 48 hours exposure; read-out: Cancer cell lines IC50 (μM) TC-252
Protocol: as §1, §2

[4] = test system: primary human embryonic fibroblasts; experiment: Cell viability assay (7AAD, 48 hours), normal fibroblasts; assay type: cell-based; conditions: Fibroblast, 48 hours exposure, read-out: Normal cell lines IC50 (μM) Fibroblasts
Protocol: as §1, §2

[5] = test system: WE-68 Ewing's sarcoma cells; experiment: Cell viability assay (7AAD, 48 hours), WE-68; assay type: cell-based; conditions: 48 hours exposure; read-out: Cancer cell lines IC50 (μM) WE-68
Protocol: as §1, §2

[6] = biological target: T1, 20S proteasome CP-L activity (Oryctolagus cuniculus, UniProt A0A5F9DQW2); experiment: In vitro proteasome activity assay, CP-L (Z-nLPnLD-AMC); assay type: biochemical, rabbit; conditions: purified 20S proteasome; highest concentration tested 25,000 nM
T1 construct: Purified rabbit 20S proteasome
Protocol: We initially determined the ability of the novel tripeptide MG132 analogues 1-6 and the macrocycles 3a and 4a to inhibit the three separate protease activities of the 20S proteasome (CT-L, -T-L and CP-L). The assays were performed in vitro using purified 20S proteasome/inhibitor mixtures, with the activity of each subunit of the proteasome assessed upon incubation with its respective target peptide. […] In addition, there is no apparent clear-cut preference for the length of tether (compare compounds 1 to 4), while the introduction of an aryl group at P3 (as in 6) is well tolerated.
Purified rabbit 20S proteasome and fluorogenic CT-L substrate (Suc-LLVY-AMC) were purchased from Boston Biochem (Cambridge, Mass., USA). The T-L and CP-L fluorogenic substrates (Ac-RLR-AMC and Z-nLPnLD-AMC) were purchased from Enzo Life Sciences (Farmingdale, N.Y., USA). The 20S proteasome was diluted to 0.2 μg/μL in 20S proteasome buffer (50 mM HEPES pH 7.6, 150 mM NaCl and 1 mM DDT) and stored at −80° C. Purified 20S proteasome (8 ng) was pre-incubated with the indicated concentrations of inhibitors for 15 minutes and subsequently added to the AMC-labeled substrate peptide (50 μM) in assay buffer (25 mM HEPES, pH 7.5, 0.5 mM EDTA, 0.05% NP-40, and 0.001% SDS (w/v)) at 37° C. for 2 hours. Fluorescent substrate cleavage by the 20S proteasome was linear during this incubation timeframe (Supplementary Figure S4. Hydrolysed 7-amino-4-methylcoumarin (AMC) was subsequently detected with the FLUOstar OPTIMA microplatefluorometer at excitation/emission of 390/460 nm. The activity was estimated in relative fluorescence units and half of the maximal inhibitory activity of the proteasome is represented by IC50 values. A minimum of three biological replicates were performed for each data point.

[7] = biological target: T2, 20S proteasome chymotrypsin-like (CT-L) activity (Oryctolagus cuniculus, UniProt G1T4Q9); experiment: In vitro proteasome activity assay, CT-L (Suc-LLVY-AMC); assay type: biochemical, rabbit; conditions: purified 20S proteasome
T2 sequence (G1T4Q9 1-263): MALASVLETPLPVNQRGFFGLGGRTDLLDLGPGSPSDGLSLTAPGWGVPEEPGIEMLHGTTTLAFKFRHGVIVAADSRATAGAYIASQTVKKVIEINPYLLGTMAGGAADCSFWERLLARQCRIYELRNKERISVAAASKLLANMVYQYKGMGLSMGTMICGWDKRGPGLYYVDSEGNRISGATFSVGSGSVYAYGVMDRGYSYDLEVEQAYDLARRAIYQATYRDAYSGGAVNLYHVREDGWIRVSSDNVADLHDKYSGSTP
Protocol: (§3) The assays were performed in vitro using purified 20S proteasome/inhibitor mixtures, with the activity of each subunit of the proteasome assessed upon incubation with its respective target peptide.
(§4) Purified rabbit 20S proteasome and fluorogenic CT-L substrate (Suc-LLVY-AMC) were purchased from Boston Biochem (Cambridge, Mass., USA). The T-L and CP-L fluorogenic substrates (Ac-RLR-AMC and Z-nLPnLD-AMC) were purchased from Enzo Life Sciences (Farmingdale, N.Y., USA). The 20S proteasome was diluted to 0.2 μg/μL in 20S proteasome buffer (50 mM HEPES pH 7.6, 150 mM NaCl and 1 mM DDT) and stored at −80° C. Purified 20S proteasome (8 ng) was pre-incubated with the indicated concentrations of inhibitors for 15 minutes and subsequently added to the AMC-labeled substrate peptide (50 μM) in assay buffer (25 mM HEPES, pH 7.5, 0.5 mM EDTA, 0.05% NP-40, and 0.001% SDS (w/v)) at 37° C. for 2 hours.

[8] = test system: VH-64 Ewing's sarcoma cells; experiment: Cell viability assay (7AAD, 48 hours), VH-64; assay type: cell-based; conditions: 48 hours exposure; read-out: Cancer cell lines IC50 (μM) VH-64
Protocol: as §1, §2

[9] = biological target: T3, 20S proteasome T-L activity (Oryctolagus cuniculus, UniProt G1SWK8); experiment: In vitro proteasome activity assay, T-L (Ac-RLR-AMC); assay type: biochemical, rabbit; conditions: for IC50: purified 20S proteasome, highest concentration tested 25,000 nM
T3 construct: purchased Boston Biochem
T3 sequence (G1SWK8 1-271): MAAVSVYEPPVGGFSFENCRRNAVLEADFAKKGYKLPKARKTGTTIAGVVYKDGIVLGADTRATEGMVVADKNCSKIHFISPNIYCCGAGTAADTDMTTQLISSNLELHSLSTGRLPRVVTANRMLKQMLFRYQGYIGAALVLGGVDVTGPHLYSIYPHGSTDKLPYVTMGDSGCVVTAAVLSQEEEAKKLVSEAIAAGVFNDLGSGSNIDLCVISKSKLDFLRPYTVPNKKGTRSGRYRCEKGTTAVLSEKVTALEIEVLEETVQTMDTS
Protocol: as §3, §4

[10] = test system: panel of sarcoma cell lines (WE-68, VH-64, STA-ET-1, TC-252); experiment: Cell viability assay, panel of four sarcoma cell lines (average); assay type: cell-based; conditions: for IC50: average of four sarcoma cell lines, read-out: Average IC50 for cancer cell lines
Protocol: as §1, §2

[11] = test system: primary human osteoblasts; experiment: Cell viability assay (7AAD, 48 hours), normal osteoblasts; assay type: cell-based; conditions: Osteoblast, 48 hours exposure, read-out: Normal cell lines IC50 (μM) Osteoblasts
Protocol: as §1, §2

[12] = test system: normal cell lines (fibroblasts, osteoblasts); experiment: Cell viability assay, normal cell lines (average); assay type: cell-based; conditions: Homo sapiens; average of fibroblasts and osteoblasts
Protocol: as §1, §2

T1 sequence (A0A5F9DQW2 1-212): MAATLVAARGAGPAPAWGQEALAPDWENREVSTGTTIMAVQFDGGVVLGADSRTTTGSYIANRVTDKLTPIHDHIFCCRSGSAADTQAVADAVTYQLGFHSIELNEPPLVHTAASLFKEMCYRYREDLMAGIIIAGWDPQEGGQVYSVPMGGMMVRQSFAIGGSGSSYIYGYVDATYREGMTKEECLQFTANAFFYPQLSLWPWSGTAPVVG

| Structure (SMILES) | Ki [1] [nM] | IC50 [2] [µM] | IC50 [3] [µM] | IC50 [4] [µM] | IC50 [5] [µM] | IC50 [6] [nM] | IC50 [8] [µM] | IC50 [9] [nM] | IC50 [10] [nM] | IC50 [11] [µM] | other results |
| --- | --- | --- | --- | --- | --- | --- | --- | --- | --- | --- | --- |
| O=CC(Cc1ccccc1)NC(=O)C1CCCCOc2ccc(cc2)CCC(=O)c2ccc([nH]2)C(=O)N1 (centres unmarked) [Compound 2d] | 431 ± 5 |  |  |  |  |  |  |  |  |  |  |
| CC(C)CC1NC(=O)C(NC(=O)OCc2ccccc2)CCCCn2cc(nn2)COc2ccc(cc2)CC(C=O)NC1=O (centres unmarked) [Compound 4a] |  | 37.6 | 39.4 | > 50 | 18 | > 25000 | > 50 | > 25000 | 31700 | > 50 | IC50 [7]: 250 nM |
| CC(C)CC(C=O)NC(=O)C1Cc2ccc(cc2)OCCCCOc2ccc(cc2)CCC(=O)c2ccc([nH]2)C(=O)N1 (centres unmarked) [Compound 3c] | 1920 ± 167 |  |  |  |  |  |  |  |  |  |  |
| CC(C)C[C@H](NC(=O)[C@H](Cc1ccccc1)NC(=O)c1cnccn1)B(O)O [Bortezomib, reference compound] |  | < 0.0008 | 0.01 | 0.02 | 0.02 | 438 | 0.04 | > 25000 | 20 | 0.28 | activation of T-L activity [9]: ^fBortezomib activated T-L activity by 32%.; Therapeutic window ([10]; fold change in potency (IC50) against cancer cell line versus normal cell line): ×9.1; IC50 [12]: 150 nM |
| O=CC(Cc1ccccc1)NC(=O)C1Cc2ccc(cc2)OCCCCOc2ccc(cc2)CCC(=O)c2ccc([nH]2)C(=O)N1 (centres unmarked) [Compound 3d] | 33 ± 5 |  |  |  |  |  |  |  |  |  |  |
| O=C[C@H](Cc1ccccc1)NC(=O)[C@@H]1CCCCCCCCCCCC(=O)c2ccc([nH]2)C(=O)N1 [Compound 1d, (S)-2,16-dioxo-N—((S)-1-oxo-3-phenylpropan-2-yl)-3,20-diazabicyclo[15.2.1]icosa-1(19),17-diene-4-carboxamide] | 2520 ± 248 |  |  |  |  |  |  |  |  |  |  |

Source: patent US20150299250A1, “MACROCYCLIC COMPOUNDS AND USES THEREOF” (ADELAIDE RESEARCH & INNOVATION PTY LTD, priority 2012, published 2015)
